This test can be described thus: Inhibition of estrogen receptor alpha-mediated human MCF7 cell growth inhibition.

SMILES strings stand for the structures. pIC50: −log10 of the molar value.

Consider `COc1cc(C(=O)CCc2cc3c(cc2OC)CC[C@@H]2[C@@H]3CC[C@]3(C)[C@@H](O)CC[C@@H]23)ccc1O`, for which the pIC50 is 4.19.

For `COc1cc2c(cc1C=O)[C@H]1CC[C@]3(C)[C@@H](OC(C)=O)CC[C@H]3[C@@H]1CC2`, the pIC50 was 4.19.

With `COc1ccc2c(c1)CC[C@@H]1[C@@H]2CC[C@]2(C)[C@@H](OC(C)=O)CC[C@@H]12`, the negative-log IC50 (pIC50) is 4.19.

In general, pIC50 refers to the IC50 on a negative log10 scale, so that one unit is a factor of ten. The low end stands for a large IC50, the high end for a small IC50.

The values above are taken from BindingDB's records for doi:10.1016/j.ejmech.2013.06.048 (University of Siena, 2013).
